Several values for one entry are separate records, joined by “and”; a condition that tells them apart may be missing. Equal values may be shown once. Where a name gives a salt, the structure may show the parent alone.
Conditions: Liquid, Gas Saturation Method

CCCOC(=O)CCCC(=O)OCCC [pentanedioic acid, dipropyl ester]
Conditions | vapor or sublimation pressure [kPa]
313.3 K | 0.00276
316.4 K | 0.00359
318.5 K | 0.00444
319.4 K | 0.00478
322.5 K | 0.00609
323.5 K | 0.00637
325.4 K | 0.00778
328.5 K | 0.01
329.5 K | 0.0109
331.4 K | 0.0128
333.6 K | 0.0149
336.4 K | 0.0184
338.5 K | 0.022
341.4 K | 0.0271
343.6 K | 0.031
346.4 K | 0.0385
348.4 K | 0.0432
350.5 K | 0.0504
353.5 K | 0.0628

CCOC(=O)CCC(=O)OCC [diethyl butanedioate]
Conditions | vapor or sublimation pressure
290.2 K | 0.00495 kPa
290.5 K | 0.00504 kPa
293.5 K | 0.00678 kPa
296.4 K | 0.00861 kPa
301.4 K | 0.0134 kPa
306.4 K | 0.0208 kPa
311.4 K | 0.0313 kPa
313.4 K | 0.035 kPa
316.4 K | 0.0455 kPa
318.4 K | 0.0503 kPa
321.4 K | 0.0661 kPa
323.5 K | 0.0777 kPa
326.5 K | 0.0941 kPa and 0.0963 kPa
328.5 K | 0.1125 kPa
331.4 K | 0.133 kPa
331.6 K | 0.1351 kPa
333.6 K | 0.1517 kPa
336.5 K | 0.1864 kPa
339.4 K | 0.2221 kPa
342.4 K | 0.2658 kPa
345.5 K | 0.3425 kPa

CCCCOC(=O)C(=O)OCCCC [di-n-butyl oxalate]
Conditions | vapor or sublimation pressure
291.4 K | 0.00087 kPa
293.4 K | 0.0011 kPa
295.7 K | 0.00143 kPa
298.8 K | 0.00182 kPa
300.4 K | 0.00209 kPa
302.3 K | 0.00249 kPa
302.8 K | 0.00276 kPa
303.3 K | 0.00283 kPa
305.2 K | 0.0034 kPa
305.3 K | 0.00334 kPa
308.2 K | 0.00446 kPa
308.3 K | 0.00433 kPa
308.4 K | 0.00448 kPa
311.3 K | 0.00565 kPa
312.3 K | 0.00624 kPa
313.2 K | 0.0066 kPa
314.3 K | 0.00737 kPa
315.5 K | 0.00855 kPa
317.4 K | 0.00937 kPa
317.8 K | 0.0105 kPa
318.2 K | 0.0105 kPa
319.9 K | 0.0124 kPa
320.2 K | 0.0115 kPa
322.5 K | 0.0149 kPa
323.2 K | 0.0159 kPa
323.4 K | 0.0151 kPa
325.3 K | 0.0176 kPa and 0.018 kPa
326.4 K | 0.0193 kPa
327.5 K | 0.0215 kPa
328.2 K | 0.0223 kPa
328.5 K | 0.0226 kPa
330.3 K | 0.0254 kPa
331.1 K | 0.0289 kPa
331.4 K | 0.0292 kPa
333.2 K | 0.0339 kPa
333.5 K | 0.0346 kPa and 0.0333 kPa
335.2 K | 0.0375 kPa
336.3 K | 0.0414 kPa
337 K | 0.0434 kPa
338.1 K | 0.0475 kPa
338.6 K | 0.0475 kPa
340.2 K | 0.0543 kPa
340.8 K | 0.0586 kPa
341.4 K | 0.0568 kPa
343.2 K | 0.0651 kPa
343.4 K | 0.0693 kPa
343.5 K | 0.0645 kPa
345.2 K | 0.0741 kPa
348.3 K | 0.0962 kPa
351.2 K | 0.1137 kPa
353.1 K | 0.1332 kPa
358.2 K | 0.1811 kPa

CCOC(=O)CC(=O)OCC [diethyl 1,3-propanedioate]
Conditions | vapor or sublimation pressure [kPa]
283.8 K | 0.00689
286.2 K | 0.00858
289.2 K | 0.0115
292.3 K | 0.015
295.2 K | 0.0193
298.2 K | 0.0251
301.3 K | 0.0321
304.2 K | 0.0405
304.7 K | 0.0428
307.3 K | 0.0513
310.2 K | 0.0646
313.3 K | 0.0814
316.3 K | 0.1005

CCOC(=O)CCCCC(=O)OCC [diethyl hexanedioate]
Conditions | vapor or sublimation pressure [kPa]
303.5 K | 0.0022
308.2 K | 0.00343
313.3 K | 0.00523
318.2 K | 0.00793
323.1 K | 0.0118
328.2 K | 0.0185
329.6 K | 0.0209
333.2 K | 0.0273
335.2 K | 0.0323
338.2 K | 0.039
340.2 K | 0.0462
343.2 K | 0.0561
346.2 K | 0.0698
349.1 K | 0.0851
352.2 K | 0.1061

CCCCOC(=O)CC(=O)OCCCC [dibutyl 1,3-propanedioate]
Conditions | vapor or sublimation pressure [kPa]
303.2 K | 0.00138
308.3 K | 0.00223
313.3 K | 0.00366
318.3 K | 0.00557
323.2 K | 0.00878
325.1 K | 0.0101
328.2 K | 0.0131
330.2 K | 0.0152
333.2 K | 0.0193
335.2 K | 0.0217
338.2 K | 0.0267
340.2 K | 0.0325
343.2 K | 0.0407
345.2 K | 0.0454
349.1 K | 0.0586
353.1 K | 0.0788
357.2 K | 0.1022
361.2 K | 0.1343
365.2 K | 0.1672
369.2 K | 0.2174

CCCOC(=O)CCCCC(=O)OCCC [dipropyl hexanedioate]
Conditions | vapor or sublimation pressure [kPa]
318.8 K | 0.00173
321.7 K | 0.00222
323.5 K | 0.0026
327.4 K | 0.00367
333.2 K | 0.00602
336.1 K | 0.00765
339.1 K | 0.00972
342.1 K | 0.0122
345.5 K | 0.0152
348.3 K | 0.0196
351.5 K | 0.0253
354.2 K | 0.0306
357.1 K | 0.0373
361.2 K | 0.0485
365.3 K | 0.0639

CCCOC(=O)CC(=O)OCCC [dipropyl 1,3-propanedioate]
Conditions | vapor or sublimation pressure [kPa]
293.3 K | 0.00356
298.3 K | 0.00582
299.4 K | 0.00652
303.2 K | 0.00897
307.3 K | 0.0129
308.2 K | 0.0135
311.3 K | 0.0178
313.3 K | 0.0199
315.3 K | 0.0245
318.5 K | 0.0296
319.4 K | 0.0332
323.4 K | 0.0426
328.5 K | 0.0622
333.5 K | 0.089
336.4 K | 0.1095
338.5 K | 0.13

CCCCOC(=O)CCCCC(=O)OCCCC [dibutyl hexanedioate]
Conditions | vapor or sublimation pressure [kPa]
313.2 K | 0.00018
318.2 K | 0.0003
323.2 K | 0.00048
328.2 K | 0.00079
333.3 K | 0.00127
338.4 K | 0.00202
343.1 K | 0.00304
348.2 K | 0.00467
353.2 K | 0.00705
358.2 K | 0.0102
363.2 K | 0.0143
368.2 K | 0.0201
373.2 K | 0.0285

CCCOC(=O)C(=O)OCCC [di-n-propyl oxalate]
Conditions | vapor or sublimation pressure [kPa]
293.6 K | 0.00943
298.5 K | 0.0139
301.4 K | 0.0175
306.4 K | 0.0255
308.4 K | 0.0304
311.4 K | 0.0362
313.4 K | 0.0413
316.3 K | 0.052
318.6 K | 0.0626
321.4 K | 0.0741
323.3 K | 0.0903
326.3 K | 0.1085
328.3 K | 0.1248
330.4 K | 0.1423
333.5 K | 0.1801

CCOC(=O)C(=O)OCC [diethyl ethanedioate]
Conditions | vapor or sublimation pressure [kPa]
283.6 K | 0.0164
288.5 K | 0.0256
293.4 K | 0.0392
298.3 K | 0.0571
303.3 K | 0.0814
308.4 K | 0.1254
311.3 K | 0.1509
313.5 K | 0.175
316.4 K | 0.2075
318.3 K | 0.2434
321.4 K | 0.2972
325.4 K | 0.3834
329.5 K | 0.4832
333.5 K | 0.6275

CCOC(=O)CCCC(=O)OCC [diethyl glutarate]
Conditions | vapor or sublimation pressure [kPa]
298.3 K | 0.00352
303.4 K | 0.00575
308.6 K | 0.00877
311.2 K | 0.0108
313.5 K | 0.0134
316.2 K | 0.0161
318.2 K | 0.0185
318.5 K | 0.02
322.2 K | 0.0254
323.3 K | 0.0277
328.2 K | 0.0405
333.2 K | 0.0601
338.2 K | 0.0874
343.2 K | 0.1236
347.9 K | 0.1725

CCCCOC(=O)CCC(=O)OCCCC [butanedioic acid, dibutyl ester]
Conditions | vapor or sublimation pressure [kPa]
313.3 K | 0.00132
316.2 K | 0.0017
318.3 K | 0.00205
320.2 K | 0.00248
323.2 K | 0.00325
325.2 K | 0.00383
328.2 K | 0.00489
330.2 K | 0.00577
333.2 K | 0.00743
335.4 K | 0.00877
338.2 K | 0.011
340.1 K | 0.0121
343.2 K | 0.0164
346.2 K | 0.0197
349.2 K | 0.0247
352.1 K | 0.0319
355.1 K | 0.0387
358.2 K | 0.0473

CCCCOC(=O)CCCC(=O)OCCCC [dibutyl pentanedioate]
Conditions | vapor or sublimation pressure
317.5 K | 0.00064 kPa
318.3 K | 0.0007 kPa
322.4 K | 0.00103 kPa
323.4 K | 0.00114 kPa and 0.00113 kPa
325.4 K | 0.00132 kPa
326.5 K | 0.00145 kPa
328.4 K | 0.00179 kPa and 0.00173 kPa
330.6 K | 0.0021 kPa
331.5 K | 0.00229 kPa
333.5 K | 0.00273 kPa
334.6 K | 0.00306 kPa
334.7 K | 0.00298 kPa
337.6 K | 0.00375 kPa
338.6 K | 0.00404 kPa
340.5 K | 0.00475 kPa
343.3 K | 0.006 kPa
346.6 K | 0.00782 kPa
349.6 K | 0.00973 kPa
350.3 K | 0.0103 kPa
352.5 K | 0.0121 kPa
354.7 K | 0.0145 kPa
357.5 K | 0.0177 kPa
360.6 K | 0.0213 kPa
363.4 K | 0.026 kPa
366.4 K | 0.0318 kPa
369.5 K | 0.0403 kPa

CCCOC(=O)CCC(=O)OCCC [butanedioic acid, dipropyl ester]
Conditions | vapor or sublimation pressure [kPa]
308.3 K | 0.00487
312.4 K | 0.00685
316.4 K | 0.00936
318.5 K | 0.0111
321.5 K | 0.0139
323.5 K | 0.0163
326.4 K | 0.0209
328.6 K | 0.0252
331.3 K | 0.0303
333.4 K | 0.0362
336.5 K | 0.0443
338.5 K | 0.0509
341.5 K | 0.0625
343.5 K | 0.0723
